Test results from patent US20260207654A1, “HEPARAN SULFATE AND ITS MIMETICS AS CHEMOKINE INHIBITORS” (INDIAN INSTITUTE OF SCIENCE EDUCATION AND RESEARCH, priority 2021, published 2026).

Experiments:
Assay in all cases: Chemokine glycan microarray binding assay
Conditions in all cases: maximum RFU set as 100% binding, average across 2 glycan concentrations and 3 chemokine dilutions (n=6)
CCL13 = CCL13 (Homo sapiens, UniProt Q99616)
Procedure: (§1) Microarray Studies: The compounds of the present invention were covalently immobilized on epoxy group collated glass slides. Slides were rehydrated with dH2O and incubated for 30 min in a staining dish with 50° C. prewarmed ethanolamine (0.05 M) in Tris-HCl (0.1 M, pH 9.0) to block the remaining reactive epoxy groups on the slide surface, then washed with 50° C. prewarmed dH2O. Slides were centrifuged at 200 g for 3 min, then fitted with the ProPlate Multi-Array 16-well slide module (Grace Bio-lab P37001) to divide into the subarrays (blocks). Slides were washed with PBST (0.1% Tween 20), aspirated, and blocked with 200 μL/subarray of blocking buffer (PBS pH 7.3+1% w/v ovalbumin) for 1 h at RT with gentle shaking. Next, the blocking solution was aspirated and 100 μL/block of primary chemokines diluted in PBS pH 7.3+1% w/v ovalbumin were incubated with gentle shaking for 2 hours at RT. Slides were washed 4 times with PBST, then with PBS (without Tween-20) for 2 min. Bound antibodies were detected by incubating with biotinylated secondary detections (1 ng/μL) diluted in PBS, 200 μL/block at RT for 1 h. Slides were washed 4 times with PBST, then with PBS (without Tween-20) for 2 min and biotinylated antibodies were detected with Cy3-SA ([…]). Slides were washed 4 times with PBST, then with PBS for 10 min followed by removal from the ProPlate Multi-Array slide module and immediately dipping in a staining dish with dH2O for 10 min with shaking. The slides were then centrifuged at 200 g for 3 min, and the dry slides immediately scanned. Binding was tested at three serial dilutions, then detected with the relevant biotinylated secondary antibody (1 μg/mL) followed by Cy3-strepavidin (1.5 μg/mL). Arrays were scanned and RFUs were calculated of chemokines binding to 100 μM glycans printed at four replicates. Rank binding of chemokines (each at three dilutions) to glycans printed at four replicates each was calculated and summarized in Table 1. For each binding assay per printed block, the maximum RFU was determined and set as 100% binding. Then, binding to all other glycans in the same block was ranked in comparison to the maximal binding, and average rank binding (and SEM) for each glycan across the three examined concentrations of each chemokine was calculated. This analysis allowed to compare the glycan-binding profiles of the different chemokines and dissect their binding preferences.
(§2) Table 1. Chemokine glycan microarray binding assay. Binding was tested at 3 serial dilutions, then detected with the relevant biotinylated secondary antibody (1 μg/ml) followed by Cy3-Strepavidin (1.5 μg/ml) (Table SX). Arrays were scanned, relative fluorescent units (RFU) obtained, and maximum RFU determined and set as 100% binding. Then rank binding (per printed glycan per concentration, per each chemokine dilution, per printed block) was determined. Since each glycans was printed at 2 concentration, 100% binding was set separately for each concentration. Then, binding to all the other glycans at the same concentration was ranked in comparison to the maximal binding, and the average rank binding and SEM for each glycan across the two glycan concentrations and three examined dilutions of each chemokine was calculated (n=6, 2 glycan concentrations across 3 chemokine dilutions). This analysis allowed to compare the glycan binding profiles of the different chemokines and dissect their binding preferences. The mean rank is shown as a heatmap of all the examined binding assays together (red highest, blue lowest and white 50th percentile of ranking).

CXCL12 = CXCL12 (Homo sapiens, UniProt P48061)
Procedure: as §1, §2

CCL21 = biological target: T1, CCL21 (Homo sapiens, UniProt O00585)
T1 sequence (O00585 24-134): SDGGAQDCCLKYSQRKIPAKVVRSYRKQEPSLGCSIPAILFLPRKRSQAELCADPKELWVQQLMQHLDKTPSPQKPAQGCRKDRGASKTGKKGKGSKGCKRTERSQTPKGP
Procedure: as §1, §2

CXCL8 = biological target: T2, CXCL8 (Homo sapiens, UniProt P10145)
T2 sequence (P10145 21-99): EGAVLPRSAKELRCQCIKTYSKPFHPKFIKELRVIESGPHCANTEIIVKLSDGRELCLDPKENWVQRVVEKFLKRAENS
Procedure: as §1, §2

CCL7 = CCL7 (Homo sapiens, UniProt P80098)
Procedure: as §1, §2

CCL5 = biological target: T3, CCL5 (Homo sapiens, UniProt P13501)
T3 sequence (P13501 24-91): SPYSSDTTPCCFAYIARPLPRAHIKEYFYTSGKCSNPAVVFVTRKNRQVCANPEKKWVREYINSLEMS
Procedure: as §1, §2

CCL28 = biological target: T4, CCL28 (Homo sapiens, UniProt Q9NRJ3)
T4 sequence (Q9NRJ3 20-127): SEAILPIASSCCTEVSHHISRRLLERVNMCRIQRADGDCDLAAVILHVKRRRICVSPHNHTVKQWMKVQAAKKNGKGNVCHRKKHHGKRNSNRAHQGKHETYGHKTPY
Procedure: as §1, §2

CCL2 = CCL2 (Homo sapiens, UniProt P13500)
Procedure: as §1, §2

CXCL10 = biological target: T5, CXCL10 (Homo sapiens, UniProt P02778)
T5 sequence (P02778 22-98): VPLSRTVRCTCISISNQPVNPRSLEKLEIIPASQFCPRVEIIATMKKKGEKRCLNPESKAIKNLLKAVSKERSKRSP
Procedure: as §1, §2

Sequence of CCL13 (Q99616 17-98, species assumed): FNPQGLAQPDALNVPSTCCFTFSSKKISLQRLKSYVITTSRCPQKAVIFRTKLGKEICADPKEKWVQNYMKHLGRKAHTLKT
Sequence of CCL7 (P80098 24-99, species assumed): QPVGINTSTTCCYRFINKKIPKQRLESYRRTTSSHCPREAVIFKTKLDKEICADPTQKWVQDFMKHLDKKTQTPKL
Sequence of CXCL12 (P48061 22-93, species assumed): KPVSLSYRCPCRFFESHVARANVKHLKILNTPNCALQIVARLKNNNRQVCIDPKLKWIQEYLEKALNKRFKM
Sequence of CCL2 (P13500 24-99, species assumed): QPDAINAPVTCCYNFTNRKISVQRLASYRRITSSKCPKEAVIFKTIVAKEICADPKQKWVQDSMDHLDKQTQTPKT

Row | SMILES | mean rank binding to CCL13 (CCL13) [%] | mean rank binding to CXCL12 (CXCL12) [%] | mean rank binding to CCL21 (CCL21) [%] | mean rank binding to CXCL8 (CXCL8) [%] | mean rank binding to CCL7 (CCL7) [%] | mean rank binding to CCL5 (CCL5) [%] | mean rank binding to CCL28 (CCL28) [%] | mean rank binding to CCL2 (CCL2) [%] | mean rank binding to CXCL10 (CXCL10) [%]
1 | NCCOCCO[C@@H]1OC(C(=O)O)[C@@H](O[C@@H]2OC(C(=O)O)[C@@H](O[C@@H]3OC(C(=O)O)[C@@H](O[C@@H]4OC(C(=O)O)[C@@H](O)C(O)C4O)C(O)C3O)C(O)C2O)C(O)C1O (stereo partly drawn) [Example 10, Ethoxy-2-aminoethoxyl-O-(α-L-idopyranosyl Uronic Acid-α(1→4)-α-L-idopyranosyluronic acid-α(1→4)-α-L-idopyranosyluronic acid-α(1→4))-α-L-idopyranoside Uronic Acid] | 88 | 98 | 86 | 83 | 87 | 86 | 76 | 69 | 96
2 | NCCOCCO[C@@H]1O[C@@H](C(=O)O)[C@@H](O[C@@H]2O[C@@H](C(=O)O)[C@@H](O[C@@H]3O[C@@H](C(=O)O)[C@@H](O[C@@H]4O[C@@H](C(=O)O)[C@@H](OS(=O)(=O)O)[C@H](O)[C@H]4O)[C@H](O)[C@H]3O)[C@H](O)[C@H]2O)[C@H](O)[C@H]1O [Example 11, Ethoxy-2-aminoethoxyl-O-(4-O-sulfonato)-α-L-idopyranosyl Uronic Acid-α(1→4)-α-L-Idopyranosyl Uronic Acid-α(1→4)-α-L-idopyranosyl Uronic Acid-α(1→4)-α-L-idopyranoside Uronic Acid] | 67 | 82 | 80 | 95 | 79 | 80 | 84 | 67 | 74
3 | CC(=O)NC1C(O)[C@H](O)C(CO)O[C@@H]1O[C@@H]1C(C(=O)O)O[C@@H](O[C@@H]2C(CO)O[C@H](O[C@@H]3C(C(=O)O)O[C@@H](OCCCN)C(OS(=O)(=O)O)C3O)C(NC(C)=O)C2O)C(OS(=O)(=O)O)C1O (stereo partly drawn) [Example 14, 3-Aminopropyl-O-[(2-acetamido-2-deoxy-α-D-glucopyranosyl)-(1→4)-O-(2-O-sulfonato-α-L-idopyranosyluronate)-(1→4)-O-(2-acetamido-2-deoxy-α-D-glucopyranosyl)]-(1→4)-O-2-O-sulfonato-α-L-idopyranosiduronate] | 21 | 11 | 23 | 2 | 1 | 1 | 21 | 0 | 11
4 | NCCCO[C@@H]1OC(C(=O)O)[C@@H](O[C@H]2OC(CO)[C@@H](O[C@@H]3OC(C(=O)O)[C@@H](O[C@H]4OC(CO)[C@@H](O)C(O)C4N)C(O)C3O)C(O)C2N)C(O)C1O (stereo partly drawn) [Example 15, 3-Aminopropyl-O-[(2-amino-2-deoxy-α-D-glucopyranosyl)-(1→4)-O-(α-L-idopyranosyluronate)-(1→4)-O-(2-amino-2-deoxy-α-D-glucopyranosyl)]-(1→4)-O-α-L-idopyranosiduronate] | 64 | 51 | 62 | 13 | 45 | 3 | 36 | 3 | 39
